Data published in the Kinase Knowledgebase extract (Sharma et al. 2016).

Key:
[1] = target: EGFR (UniProt P00533)
[2] = target: EGFR (human) (UniProt P00533); settings: huvec
[3] = target: EGFR (human) (UniProt P00533); experiment: Assessment of DiFi Cell Growth Inhibition by MTS Assay

Chain of EGFR (human) (P00533 whole entry, looked up): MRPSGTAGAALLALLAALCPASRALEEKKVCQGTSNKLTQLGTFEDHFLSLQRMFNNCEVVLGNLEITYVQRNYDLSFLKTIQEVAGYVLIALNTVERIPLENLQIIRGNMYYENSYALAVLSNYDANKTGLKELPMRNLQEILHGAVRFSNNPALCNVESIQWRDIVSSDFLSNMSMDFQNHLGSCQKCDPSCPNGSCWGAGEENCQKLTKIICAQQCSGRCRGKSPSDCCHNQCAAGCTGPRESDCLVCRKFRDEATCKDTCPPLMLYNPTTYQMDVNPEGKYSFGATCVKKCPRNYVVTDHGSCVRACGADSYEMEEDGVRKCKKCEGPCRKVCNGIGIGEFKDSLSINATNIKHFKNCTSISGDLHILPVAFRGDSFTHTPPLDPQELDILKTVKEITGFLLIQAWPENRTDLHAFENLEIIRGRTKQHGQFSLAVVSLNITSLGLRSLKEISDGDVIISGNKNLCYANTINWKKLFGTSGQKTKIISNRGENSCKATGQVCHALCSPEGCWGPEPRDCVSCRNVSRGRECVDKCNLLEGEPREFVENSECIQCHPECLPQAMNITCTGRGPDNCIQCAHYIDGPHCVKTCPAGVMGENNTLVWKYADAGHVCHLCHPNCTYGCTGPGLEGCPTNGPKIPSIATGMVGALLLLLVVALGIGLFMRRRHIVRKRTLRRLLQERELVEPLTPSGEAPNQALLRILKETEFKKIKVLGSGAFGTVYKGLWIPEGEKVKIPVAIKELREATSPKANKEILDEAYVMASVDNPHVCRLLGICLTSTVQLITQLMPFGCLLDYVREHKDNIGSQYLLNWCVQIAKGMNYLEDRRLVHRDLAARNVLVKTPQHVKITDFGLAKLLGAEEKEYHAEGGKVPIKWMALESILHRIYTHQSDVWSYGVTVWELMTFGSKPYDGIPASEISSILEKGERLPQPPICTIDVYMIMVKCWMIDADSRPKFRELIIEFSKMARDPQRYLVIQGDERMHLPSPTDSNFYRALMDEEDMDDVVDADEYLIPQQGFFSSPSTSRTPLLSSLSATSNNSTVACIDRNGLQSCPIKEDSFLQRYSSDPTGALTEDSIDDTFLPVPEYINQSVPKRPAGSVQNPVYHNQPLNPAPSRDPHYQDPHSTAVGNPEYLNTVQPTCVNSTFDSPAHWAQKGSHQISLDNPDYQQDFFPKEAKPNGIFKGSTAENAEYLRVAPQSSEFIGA
Chain of EGFR (P00533 whole entry, looked up): as above

| IC50 [1] | IC50 [2] | IC50 [3] | Structure (SMILES) |
| --- | --- | --- | --- |
|  | 270 nM | > 10000 nM | Cc1ccc(Nc2ncnn3ccc(C)c23)cc1O |
|  |  | > 10000 nM | Cc1ccc(Nc2ncnn3cc(C)c(C)c23)cc1O |
|  |  | > 10000 nM | Cc1cc2c(Nc3ccc(C)c(O)c3)ncnn2c1 |

The next lines start with the compound.

| Structure (SMILES) | IC50 [1] | IC50 [2] | IC50 [3] |
| --- | --- | --- | --- |
| Fc1ccc(Nc2ncnn3cccc23)cc1Cl | 118 nM | 345 nM | 1840 nM |
| Cc1ccc(Nc2ncnn3c(C)ccc23)cc1O |  | 101 nM | > 10000 nM |
| Cc1ccn2ncnc(Nc3ccc(F)c(Cl)c3)c12 |  | 602 nM | 3060 nM |
| Cc1cc2c(Nc3ccc(F)c(Cl)c3)ncnn2c1 |  | 509 nM | 1600 nM |
| Cc1ccc(Nc2ncnn3cccc23)cc1O |  |  | > 10000 nM |
| Cc1ccc2c(Nc3ccc(F)c(Cl)c3)ncnn12 |  | > 2500 nM | > 10000 nM |
